The target in the assay is T1, IL-1β (Homo sapiens, UniProt P01584).
T1 construct: purchased BioLegend 579404
Description: IL-6 assay in MRC5 cells: inhibition of IL-1β induced IL-6 secretion (AlphaLISA). The assay is classed as cell-based. To be noted: inhibition of IL-1β induced IL-6 secretion in MRC5 cells, read-out: MRC5 IC50. A digest of the protocol: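 Compound was pre-incubated 1 h at ambient temperature with recombinant human IL-1β at 2λ EC80 before adding human lung fibroblast MRC5 cells (3000/well) in EMEM with 0.025% BSA. After overnight culture at 37 °C, 5% CO2, secreted IL-6 in conditioned medium was measured by AlphaLISA; IC50 from 4-parameter logistic fits.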
For orientation: Alpha assays give light when donor and acceptor beads are brought close together.

Where [1] appears, read: compound pre-incubated 1 hour with recombinant human IL-1β.

Results on nine molecules are retold here after patent US20260242419A1, “A CYCLIC PEPTIDE FOR TRAPPING INTERLEUKIN-1 BETA” (Merck Sharp & Dohme LLC, priority 2023, published 2026).

Read-outs that look alike come from different tables or passages of the source. Starred links: 1 amine or outer side, 2 acyl side, 3 side chain; linkers in the order of their positions; H or OH if unused. Non-standard residues stand in square brackets, D forms with d. Residues, ends and D or L forms follow the SMILES beside them. *: point of attachment. Trp(βS-Me,4-F) = C[C@@H](c1c[nH]c2cccc(F)c12)[C@H](N)C(=O)O; Bip(4'-COOH) = N[C@@H](Cc1ccc(-c2ccc(C(=O)O)cc2)cc1)C(=O)O; Trp(4-Cl) = N[C@@H](Cc1c[nH]c2cccc(Cl)c12)C(=O)O; X4 = O=C([C@H]1[C@@H](Cc2ccncc2)CCN1[*:1])[*:2]; Ala(pyrimidin-5-yl) = N[C@@H](Cc1cncnc1)C(=O)O; Phe(4-COOH) = N[C@@H](Cc1ccc(C(=O)O)cc1)C(=O)O; Nva(5,5,5-F3) = N[C@@H](CCC(F)(F)F)C(=O)O; Pro(cis-4-F) = O=C(O)[C@@H]1C[C@H](F)CN1; X46 = O=C([C@@H](Cc1cncnc1)N[*:1])[*:2]; Dap(CONH2) = NC(=O)NC[C@H](N)C(=O)O; d(αMeD) = C[C@@](N)(CC(=O)O)C(=O)O; 4Pal = N[C@@H](Cc1ccncc1)C(=O)O; Dab = NCC[C@H](N)C(=O)O; Nva = CCC[C@H](N)C(=O)O; Aib = CC(C)(N)C(=O)O; Bn = c1ccc(C*)cc1

T1 sequence (P01584 117-269): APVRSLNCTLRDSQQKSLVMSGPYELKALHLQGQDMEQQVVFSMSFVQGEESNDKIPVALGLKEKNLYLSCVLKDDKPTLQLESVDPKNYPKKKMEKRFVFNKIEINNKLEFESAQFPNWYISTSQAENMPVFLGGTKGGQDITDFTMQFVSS

As usually defined, the IC50 is the concentration needed to halve the response being measured. On to `C[C@@H](c1c[nH]c2cccc(F)c12)[C@@H]1NC(=O)[C@@H]2C[C@H](F)CN2C(=O)CNC(=O)[C@H](Cc2ccc(C(=O)O)cc2)NC(=O)[C@H](Cc2ccncc2)NC(=O)[C@H](Cc2ccc(-c3ccc(C(=O)O)cc3)cc2)NC(=O)[C@H]2[C@@H](Cc3ccncc3)CCN2C(=O)CNC(=O)[C@H](CCN)NC(=O)[C@H](CCC(N)=O)NC(=O)[C@H](Cc2cncnc2)NC(=O)[C@@](C)(CC(=O)O)NC(=O)[C@H](Cc2c[nH]c3cccc(Cl)c23)NC(=O)[C@H](CO)NC(=O)C(C)(C)NC1=O` [Example 225] (cyclo([Bip(4'-COOH)][4Pal][Phe(4-COOH)]G[Pro(cis-4-F)][Trp(βS-Me,4-F)][Aib]S[Trp(4-Cl)][d(αMeD)][Ala(pyrimidin-5-yl)]Q[Dab]G[X4])), for which the IC50 was determined as 19 pM.

Take `C[C@@H](c1c[nH]c2cccc(F)c12)[C@@H]1NC(=O)[C@@H]2C[C@H](F)CN2C(=O)CNC(=O)[C@H](Cc2ccc(C(=O)O)cc2)NC(=O)[C@H](Cc2ccncc2)NC(=O)[C@H](Cc2ccc(-c3ccc(C(=O)O)cc3)cc2)NC(=O)[C@H]2[C@@H](Cc3ccncc3)CCN2C(=O)CNC(=O)[C@H](CNC(N)=O)NC(=O)[C@H](CCC(N)=O)NC(=O)[C@H](Cc2cncnc2)NC(=O)[C@@](C)(CC(=O)O)NC(=O)[C@H](Cc2c[nH]c3cccc(Cl)c23)NC(=O)[C@H](CO)NC(=O)C(C)(C)NC1=O` [Example 226] (cyclo([Bip(4'-COOH)][4Pal][Phe(4-COOH)]G[Pro(cis-4-F)][Trp(βS-Me,4-F)][Aib]S[Trp(4-Cl)][d(αMeD)][Ala(pyrimidin-5-yl)]Q[Dap(CONH2)]G[X4])): the half-maximal inhibitory concentration (IC50) is 22 pM.

As for `CO[C@H](C)[C@@H]1NC(=O)[C@@](C)(CC(=O)O)NC(=O)[C@H](Cc2c[nH]c3ccccc23)NC(=O)[C@H](CO)NC(=O)C(C)(C)NC(=O)[C@H]([C@@H](C)c2c[nH]c3cccc(F)c23)NC(=O)[C@@H]2C[C@H](F)CN2C(=O)CNC(=O)[C@H](Cc2ccc(C(=O)O)cc2)NC(=O)[C@H](Cc2ccncc2)NC(=O)[C@H](Cc2ccc(-c3ccc(C(=O)O)cc3)cc2)NC(=O)[C@H]2[C@@H](Cc3ccncc3)CCN2C(=O)CNC(=O)[C@H](CCN)NC(=O)[C@H](CCC(N)=O)NC1=O` [Example 227] (cyclo([Bip(4'-COOH)][4Pal][Phe(4-COOH)]G[Pro(cis-4-F)][Trp(βS-Me,4-F)][Aib]SW[d(αMeD)]T(Me)Q[Dab]G[X4])), the concentration for half-maximal inhibition (IC50) is 14 pM.

Take `CO[C@H](C)[C@@H]1NC(=O)[C@@](C)(CC(=O)O)NC(=O)[C@H](Cc2c[nH]c3ccccc23)NC(=O)[C@H](CO)NC(=O)C(C)(C)NC(=O)[C@H]([C@@H](C)c2c[nH]c3cccc(F)c23)NC(=O)[C@@H]2C[C@H](F)CN2C(=O)CNC(=O)[C@H](Cc2ccc(C(=O)O)cc2)NC(=O)[C@H](Cc2ccncc2)NC(=O)[C@H](Cc2ccc(-c3ccc(C(=O)O)cc3)cc2)NC(=O)[C@H]2[C@@H](Cc3ccncc3)CCN2C(=O)CNC(=O)[C@H](CNC(N)=O)NC(=O)[C@H](CCC(N)=O)NC1=O` [Example 228] (cyclo([Bip(4'-COOH)][4Pal][Phe(4-COOH)]G[Pro(cis-4-F)][Trp(βS-Me,4-F)][Aib]SW[d(αMeD)]T(Me)Q[Dap(CONH2)]G[X4])): the concentration for half-maximal inhibition (IC50) came out at 21 pM.

On to `C[C@@H](OCc1ccccc1)[C@@H]1NC(=O)[C@@](C)(CC(=O)O)NC(=O)[C@H](Cc2c[nH]c3ccccc23)NC(=O)[C@H](CO)NC(=O)C(C)(C)NC(=O)[C@H]([C@@H](C)c2c[nH]c3cccc(F)c23)NC(=O)[C@@H]2C[C@H](F)CN2C(=O)CNC(=O)[C@H](Cc2ccc(C(=O)O)cc2)NC(=O)[C@H](Cc2ccncc2)NC(=O)[C@H](Cc2ccc(-c3ccc(C(=O)O)cc3)cc2)NC(=O)[C@H]2[C@@H](Cc3ccncc3)CCN2C(=O)CNC(=O)[C@H](CCN)NC(=O)[C@H](CCC(N)=O)NC1=O` [Example 229] (cyclo([Bip(4'-COOH)][4Pal][Phe(4-COOH)]G[Pro(cis-4-F)][Trp(βS-Me,4-F)][Aib]SW[d(αMeD)]T(Bn)Q[Dab]G[X4])), for which the IC50 under setting [1] turned out to be 23 pM.

With `C[C@@H](c1c[nH]c2cccc(F)c12)[C@@H]1NC(=O)[C@@H]2C[C@H](F)CN2C(=O)CNC(=O)[C@H](Cc2ccc(C(=O)O)cc2)NC(=O)[C@H](Cc2ccncc2)NC(=O)[C@H](Cc2ccc(-c3ccc(C(=O)O)cc3)cc2)NC(=O)[C@H]2[C@@H](Cc3ccncc3)CCN2C(=O)CNC(=O)[C@H](CNC(N)=O)NC(=O)[C@H](CCC(N)=O)NC(=O)[C@H](Cc2cncnc2)NC(=O)[C@@](C)(CC(=O)O)NC(=O)[C@H](Cc2c[nH]c3ccccc23)NC(=O)[C@H](CO)NC(=O)C(C)(C)NC1=O` [Example 230] (cyclo([Bip(4'-COOH)][4Pal][Phe(4-COOH)]G[Pro(cis-4-F)][Trp(βS-Me,4-F)][Aib]SW[d(αMeD)][Ala(pyrimidin-5-yl)]Q[Dap(CONH2)]G[X4])), the IC50 under setting [1] was 22 pM.

For `CCC[C@@H]1NC(=O)[C@@](C)(CC(=O)O)NC(=O)[C@H](Cc2c[nH]c3ccccc23)NC(=O)[C@H](CO)NC(=O)C(C)(C)NC(=O)[C@H]([C@@H](C)c2c[nH]c3cccc(F)c23)NC(=O)[C@@H]2C[C@H](F)CN2C(=O)CNC(=O)[C@H](Cc2ccc(C(=O)O)cc2)NC(=O)[C@H](Cc2ccncc2)NC(=O)[C@H](Cc2ccc(-c3ccc(C(=O)O)cc3)cc2)NC(=O)[C@H]2[C@@H](Cc3ccncc3)CCN2C(=O)CNC(=O)[C@H](CCN)NC(=O)[C@H](CCC(N)=O)NC1=O` [Example 231] (cyclo([Bip(4'-COOH)][4Pal][Phe(4-COOH)]G[Pro(cis-4-F)][Trp(βS-Me,4-F)][Aib]SW[d(αMeD)][Nva]Q[Dab]G[X4])), under setting [1], the IC50 was 27 pM.

As for `C[C@@H](c1c[nH]c2cccc(F)c12)[C@@H]1NC(=O)[C@@H]2C[C@H](F)CN2C(=O)CNC(=O)[C@H](Cc2ccc(C(=O)O)cc2)NC(=O)[C@H](Cc2ccncc2)NC(=O)[C@H](Cc2ccc(-c3ccc(C(=O)O)cc3)cc2)NC(=O)[C@H]2[C@@H](Cc3ccncc3)CCN2C(=O)CNC(=O)[C@H](CCN)NC(=O)[C@H](CCC(N)=O)NC(=O)[C@H](CCC(F)(F)F)NC(=O)[C@@](C)(CC(=O)O)NC(=O)[C@H](Cc2c[nH]c3ccccc23)NC(=O)[C@H](CO)NC(=O)C(C)(C)NC1=O` [Example 232] (cyclo([Bip(4'-COOH)][4Pal][Phe(4-COOH)]G[Pro(cis-4-F)][Trp(βS-Me,4-F)][Aib]SW[d(αMeD)][Nva(5,5,5-F3)]Q[Dab]G[X4])), the IC50 under setting [1] was 22 pM.

For the molecule `C[C@@H](c1c[nH]c2cccc(F)c12)[C@@H]1NC(=O)[C@@H]2C[C@H](F)CN2C(=O)CNC(=O)[C@H](Cc2ccc(C(=O)O)cc2)NC(=O)[C@H](Cc2ccncc2)NC(=O)[C@H](Cc2ccc(-c3ccc(C(=O)O)cc3)cc2)NC(=O)[C@H]2[C@@H](Cc3ccncc3)CCN2C(=O)CNC(=O)[C@H](CCN)NC(=O)[C@H](CCC(N)=O)NC(=O)[C@@H](Cc2cncnc2)NC(=O)C(C)(C)NC(=O)[C@H](Cc2c[nH]c3ccccc23)NC(=O)[C@H](CO)NC(=O)C(C)(C)NC1=O` [Example 233] (cyclo([Bip(4'-COOH)][4Pal][Phe(4-COOH)]G[Pro(cis-4-F)][Trp(βS-Me,4-F)][Aib]SW[Aib][X46]Q[Dab]G[X4])), the IC50 under setting [1] was determined as 30 pM.
